Results published in ChEMBL document CHEMBL6087398, “Natural phenol carbamates: Selective BuChE/FAAH dual inhibitors show neuroprotection in an Alzheimer's disease mouse model” (Eur J Med Chem, 2025).
Active and inactive are the calls of the source. The calls are words filed in the database; no cut-off is given here.

What was measured:
[1] = target: Acetylcholinesterase (Electrophorus electricus) (UniProt O42275); assay: Inhibition of electric eel AChE using acetylthiocholine iodide as substrate preincubated with enzyme for 20 mins followed by substrate addition and measured after 20 mins by Ellman's method; parameters: concentration or dose not given beside the values; settings: time 40.0 min
Sequence of Acetylcholinesterase (Electrophorus electricus) (O42275 24-633 limits assumed): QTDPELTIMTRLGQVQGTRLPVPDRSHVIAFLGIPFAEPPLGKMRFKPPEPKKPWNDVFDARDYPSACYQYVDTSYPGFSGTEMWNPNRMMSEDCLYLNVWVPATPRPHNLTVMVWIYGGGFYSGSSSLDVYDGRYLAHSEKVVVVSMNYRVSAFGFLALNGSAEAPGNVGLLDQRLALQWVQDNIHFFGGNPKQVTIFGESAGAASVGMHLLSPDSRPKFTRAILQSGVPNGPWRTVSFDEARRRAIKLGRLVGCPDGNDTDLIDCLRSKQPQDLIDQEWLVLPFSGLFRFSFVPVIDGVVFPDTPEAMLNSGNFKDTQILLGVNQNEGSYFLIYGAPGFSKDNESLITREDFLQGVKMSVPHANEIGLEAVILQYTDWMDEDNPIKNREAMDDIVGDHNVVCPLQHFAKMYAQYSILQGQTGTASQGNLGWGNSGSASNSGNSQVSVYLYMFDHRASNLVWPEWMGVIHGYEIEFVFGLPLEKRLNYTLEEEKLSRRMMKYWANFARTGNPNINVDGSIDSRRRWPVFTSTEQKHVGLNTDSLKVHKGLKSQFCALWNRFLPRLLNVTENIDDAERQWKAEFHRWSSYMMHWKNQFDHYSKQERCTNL

Cholinesterase [2] = target: Cholinesterase (Equus caballus, UniProt P81908); assay: Inhibition of equine BuChE using butyrylthiocholine iodide as substrate preincubated with enzyme for 20 mins followed by substrate addition and measured after 20 mins by Ellman's method
Sequence of Cholinesterase (Equus caballus, UniProt P81908) (P81908 whole entry): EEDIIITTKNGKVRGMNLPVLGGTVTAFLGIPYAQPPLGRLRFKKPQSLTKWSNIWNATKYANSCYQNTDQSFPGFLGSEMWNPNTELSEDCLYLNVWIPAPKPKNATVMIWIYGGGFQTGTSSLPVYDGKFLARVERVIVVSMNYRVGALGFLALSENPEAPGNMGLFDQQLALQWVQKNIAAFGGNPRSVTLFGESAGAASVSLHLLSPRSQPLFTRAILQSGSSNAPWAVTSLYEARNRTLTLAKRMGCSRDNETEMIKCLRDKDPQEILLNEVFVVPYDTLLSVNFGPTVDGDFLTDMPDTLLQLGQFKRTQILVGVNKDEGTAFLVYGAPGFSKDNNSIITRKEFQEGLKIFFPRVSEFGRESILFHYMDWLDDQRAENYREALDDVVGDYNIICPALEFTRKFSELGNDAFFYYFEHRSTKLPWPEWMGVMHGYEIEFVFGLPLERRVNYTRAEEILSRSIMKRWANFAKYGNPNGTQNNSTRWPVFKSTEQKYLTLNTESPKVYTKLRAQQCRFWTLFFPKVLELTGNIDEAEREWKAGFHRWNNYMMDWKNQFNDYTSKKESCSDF

[3] = target: Acetylcholinesterase (Electrophorus electricus) (UniProt O42275); assay: Inhibition of electric eel AChE using acetylthiocholine iodide as substrate preincubated with enzyme for 20 mins followed by substrate addition and measured after 20 mins by Ellman's method relative to control; parameters: concentration or dose not given beside the values; settings: time 40.0 min
[4] = target: T1, Fatty-acid amide hydrolase 1 (Homo sapiens, UniProt O00519); assay: Inhibition of human FAAH using arachidonoyl amide as substrate incubated for 30 mins by fluorescence-based cayman assay
T1 sequence (O00519 whole entry): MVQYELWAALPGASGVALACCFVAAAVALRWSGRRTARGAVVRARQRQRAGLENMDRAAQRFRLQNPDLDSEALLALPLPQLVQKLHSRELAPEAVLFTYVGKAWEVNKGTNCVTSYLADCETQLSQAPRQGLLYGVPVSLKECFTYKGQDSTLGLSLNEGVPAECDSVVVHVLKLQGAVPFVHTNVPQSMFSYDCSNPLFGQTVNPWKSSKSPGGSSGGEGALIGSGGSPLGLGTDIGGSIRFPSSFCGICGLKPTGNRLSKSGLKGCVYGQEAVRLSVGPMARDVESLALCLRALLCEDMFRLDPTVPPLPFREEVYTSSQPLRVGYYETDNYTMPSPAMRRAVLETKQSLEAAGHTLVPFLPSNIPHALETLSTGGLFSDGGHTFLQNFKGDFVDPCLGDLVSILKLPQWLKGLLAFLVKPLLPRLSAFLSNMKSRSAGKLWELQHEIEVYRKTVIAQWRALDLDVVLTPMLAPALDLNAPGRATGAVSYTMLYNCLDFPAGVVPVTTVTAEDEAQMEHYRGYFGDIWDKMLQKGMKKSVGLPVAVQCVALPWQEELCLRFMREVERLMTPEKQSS

Cholinesterase [5] = target: T2, Cholinesterase (Homo sapiens, UniProt P06276); assay: Inhibition of human BuChE using butyrylthiocholine iodide as substrate incubated for 5 mins
T2 sequence (P06276 whole entry): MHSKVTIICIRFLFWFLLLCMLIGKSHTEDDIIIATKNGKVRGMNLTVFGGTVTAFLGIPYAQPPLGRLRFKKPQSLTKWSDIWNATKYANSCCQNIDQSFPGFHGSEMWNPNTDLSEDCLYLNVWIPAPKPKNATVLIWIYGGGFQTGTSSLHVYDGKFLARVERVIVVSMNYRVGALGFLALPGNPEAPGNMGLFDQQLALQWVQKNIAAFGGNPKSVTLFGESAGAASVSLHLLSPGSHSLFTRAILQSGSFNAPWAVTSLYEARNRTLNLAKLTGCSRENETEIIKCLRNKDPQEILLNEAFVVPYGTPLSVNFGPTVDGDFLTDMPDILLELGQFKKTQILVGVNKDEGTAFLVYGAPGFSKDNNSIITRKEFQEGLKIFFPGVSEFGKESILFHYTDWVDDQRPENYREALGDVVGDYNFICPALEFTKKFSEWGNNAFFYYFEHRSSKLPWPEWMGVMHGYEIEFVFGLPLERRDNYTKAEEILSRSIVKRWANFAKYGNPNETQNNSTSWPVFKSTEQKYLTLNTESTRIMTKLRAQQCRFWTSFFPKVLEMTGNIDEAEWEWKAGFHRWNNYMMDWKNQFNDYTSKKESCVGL

[6] = target: Acetylcholinesterase (Homo sapiens) (UniProt P22303); assay: Inhibition of recombinant human AChE using acetylthiocholine iodide as substrate incubated for 5 mins relative to control
Sequence of Acetylcholinesterase (Homo sapiens) (P22303 whole entry): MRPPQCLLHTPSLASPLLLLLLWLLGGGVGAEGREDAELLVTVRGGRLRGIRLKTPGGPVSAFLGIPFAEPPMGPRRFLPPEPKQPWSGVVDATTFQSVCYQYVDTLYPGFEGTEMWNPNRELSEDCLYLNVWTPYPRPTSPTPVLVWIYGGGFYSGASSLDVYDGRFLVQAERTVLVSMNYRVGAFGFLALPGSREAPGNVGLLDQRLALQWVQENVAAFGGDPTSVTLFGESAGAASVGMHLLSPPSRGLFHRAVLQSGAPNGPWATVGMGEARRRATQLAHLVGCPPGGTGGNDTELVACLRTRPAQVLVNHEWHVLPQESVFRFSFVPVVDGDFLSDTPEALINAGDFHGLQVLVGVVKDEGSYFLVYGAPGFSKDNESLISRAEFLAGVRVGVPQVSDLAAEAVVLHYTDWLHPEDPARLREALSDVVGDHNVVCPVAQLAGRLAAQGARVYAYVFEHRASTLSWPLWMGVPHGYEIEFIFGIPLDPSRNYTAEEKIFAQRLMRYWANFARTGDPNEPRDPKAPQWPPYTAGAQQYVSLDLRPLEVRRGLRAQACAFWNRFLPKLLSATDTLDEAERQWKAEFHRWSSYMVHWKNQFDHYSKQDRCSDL

Cholinesterase [7] = target: T2, Cholinesterase; assay: Binding affinity to human BuChE (unknown origin) assessed as carbamolyation rate at 0.025 to 100 uM incubated for 60 mins; settings: dose 0.025-100 µM
PC-12 [8] = assay: Neuroprotective activity against H2O2 induced rat PC12 cells assessed as increase in cell viability at 50 uM measured after 24 hrs by MTT assay relative to control; assay type: functional
L02 [9] = assay: Cytotoxicity against human L02 cells assessed as reduction in cell viability at 50 uM incubated for 24 hrs by MTT assay; assay type: toxicity, cell-based; settings: l02, 24 h
Cholinesterase [10] = target: T2, Cholinesterase; assay: Binding affinity to human BuChE (unknown origin) assessed as overall carbamolyation rate at 0.025 to 100 uM incubated for 60 mins
Cholinesterase [11] = target: T2, Cholinesterase; assay: Binding affinity to human BuChE (unknown origin) assessed as equilibrium dissociation constant at 0.025 to 100 uM incubated for 60 mins
L02 [12] = assay: Cytotoxicity against human L02 cells assessed as reduction in cell viability at 12.5 uM incubated for 24 hrs by MTT assay; assay type: toxicity, cell-based; settings: l02, 24 h
PC-12 [13] = assay: Neuroprotective activity against H2O2 induced rat PC12 cells assessed as cell viability measured after 24 hrs by MTT assay; assay type: functional, cell-based; settings: dose 6.25-50 µM
Cholinesterase [14] = target: T2, Cholinesterase; assay: Binding affinity to human BuChE (unknown origin) assessed as decarbamolyation rate at 0.025 to 100 uM incubated for 60 mins; settings: dose 0.025-100 µM
in vitro = settings: PAMPA, pH 7.4
Description: Permeability of the compound in PBS at pH 7.4 incubated for 18 hrs by PAMPA-BBB assay

L02 [15] = assay: Cytotoxicity against human L02 cells assessed as reduction in cell viability at 25 uM incubated for 24 hrs by MTT assay; assay type: toxicity, cell-based; settings: l02, 24 h

SMILES | inhibition [1] | IC50 (Cholinesterase [2]) | further results
Cc1ccc(C(C)C)cc1OC(=O)N1CCCC1 | inactive | 0.68 µM | –
C=CCc1ccc(OC(=O)N(C)Cc2ccc(Br)cc2)c(OC)c1 | inactive | – | inhibition [3]: 57%
COc1ccc(C(C)=O)c(OC(=O)N(C)C)c1 | 8.3% | 1.64 µM | –
Cc1ccc(C(C)C)cc1OC(=O)N(C)C | 62% | 0.59 µM | –
COc1ccc(C(C)=O)c(OC(=O)N2CCC(Cc3ccccc3)CC2)c1 | 43% | 0.31 µM | –
COc1ccc(C(C)=O)c(OC(=O)N(C)Cc2cccc(F)c2)c1 | 20% | 0.4 µM | –
C=CCc1ccc(OC(=O)N(C)Cc2ccccc2)c(OC)c1 | 25% | – | inhibition [3]: inactive
O=C(Oc1ccc([N+](=O)[O-])cc1)N1CCN(Cc2cccc(Oc3ccccc3)c2)CC1 | – | – | IC50 [4]: 0.011 µM
Cc1ccc(C(C)C)cc1OC(=O)N(C)Cc1cccc(Cl)c1 | 36% | 1.13 µM | –
COc1ccc(C(C)=O)c(OC(=O)N2CCc3cc(OC)c(OC)cc3C2)c1 | inactive | 3.52 µM | –
Cc1ccc(C(C)C)cc1OC(=O)N(C)Cc1cccc(Br)c1 | 37% | 3.81 µM | –
COc1ccc(C(C)=O)c(OC(=O)N2CCSC2)c1 | 44% | 0.64 µM | –
COc1ccc(C(C)=O)c(OC(=O)N2CCC(C)CC2)c1 | 33% | 0.08 µM | IC50 (Cholinesterase [5]): 1.93 µM; inhibition [6]: 23%; IC50 [4]: 28.4 µM
CNC(=O)Oc1cc(OC)ccc1C(C)=O | 23% | 2.54 µM | –
COc1ccc(C(C)=O)c(OC(=O)Nc2ccc(Cl)cc2)c1 | 4.6% | 1.27 µM | –
C=CCc1ccc(OC(=O)N2CCCC2)c(OC)c1 | inactive | 2 µM | –
Cc1ccc(C(C)C)cc1OC(=O)N1CCCCC1 | – | 0.03 µM | –
Cc1ccc(C(C)C)cc1OC(=O)N(C)Cc1ccc(Br)cc1 | 32% | 1.96 µM | –
COc1ccc(C(C)=O)c(OC(=O)N2CCc3ccccc3C2)c1 | 27% | 11.5 µM | –

SMILES | inhibition [1] | IC50 (Cholinesterase [2]) | further results
COc1ccc(C(C)=O)c(OC(=O)N(C)Cc2ccc(Br)cc2)c1 | 34% | 2.81 µM | –
C=CCc1ccc(OC(=O)N(C)C)c(OC)c1 | inactive | – | inhibition [3]: 69%
C=CCc1ccc(OC(=O)N(C)Cc2cccc(Br)c2)c(OC)c1 | 17% | – | inhibition [3]: 67%
C=CCc1ccc(OC(=O)N2CCCCC2)c(OC)c1 | 42% | 0.31 µM | –
COc1ccc(C(C)=O)c(OC(=O)N(C)Cc2ccccc2)c1 | 6.6% | 0.19 µM | –
CCN(Cc1ccc(Cl)cc1)C(=O)Oc1cc(OC)ccc1C(C)=O | inactive | 0.42 µM | –
CCN(C)C(=O)Oc1cc(C(C)C)ccc1C | inactive | 0.78 µM | –
COc1ccc(C(C)=O)c(OC(=O)N(C)Cc2ccc(Cl)cc2)c1 | 5.8% | 0.057 µM | IC50 (Cholinesterase [5]): 0.089 µM; inhibition [6]: inactive; IC50 [4]: 16.6 µM
C=CCc1ccc(OC(=O)N(C)CC)c(OC)c1 | 69% | – | inhibition [3]: 74%
COc1ccc(C(C)=O)c(OC(=O)N2CCCCC2)c1 | 6.9% | 0.006 µM | K (Cholinesterase [7]): 0.41 min⁻¹; Activity (PC-12 [8]): 42%; Activity (L02 [9]): 81.4%; IC50 (Cholinesterase [5]): 0.113 µM; Ki (Cholinesterase [10]): 0.31 10^-3/uM/min; Kd (Cholinesterase [11]): 0.3 µM; inhibition [6]: inactive; Activity (L02 [12]): Non-toxic; Activity (PC-12 [13]): Dose-dependent-effect; K (Cholinesterase [14]): 0.024 min⁻¹; Papp at 18 h (in vitro): 175 nm/s; Activity (L02 [15]): 81.6%; IC50 [4]: 8.02 µM
CNC(=O)Oc1cc(C(C)C)ccc1C | 56% | 2.96 µM | –
COc1ccc(C(C)=O)c(OC(=O)N(C)Cc2ccccc2F)c1 | inactive | 0.94 µM | –
COc1ccc(C(C)=O)c(OC(=O)N2CCCC2)c1 | 21% | 1.93 µM | –
CCN(C)C(=O)Oc1cc(OC)ccc1C(C)=O | 1.7% | 3.68 µM | –
COc1ccc(C(C)=O)c(OC(=O)N(C)Cc2cccc(Br)c2)c1 | inactive | 3.41 µM | –
COc1cc2c(cc1OC)C(=O)C(CC1CCN(Cc3ccccc3)CC1)C2 (centres undefined) [DONEPEZIL] | – | – | Activity (PC-12 [8]): 43%; Activity (L02 [9]): 83.4%; Activity (L02 [12]): Non-toxic
CCN(C)C(=O)Oc1cccc([C@H](C)N(C)C)c1 [RIVASTIGMINE] | – | – | inhibition [6]: 4.65%; IC50 [4]: 14 µM
C=CCc1ccc(OC(=O)N2CCc3ccccc3C2)c(OC)c1 | 65% | – | inhibition [3]: 23%
C=CCc1ccc(OC(=O)NC)c(OC)c1 | 42% | – | inhibition [3]: 53%
